Results as given in US10301295B2, “Herbicidal compounds” (Syngenta Participations AG, priority 2014, dated 2019).
Where two headings read alike, the source gives them in different places.

Columns and labels:
Format in all cases: in vivo
[1] = test system: Alopecurus myosuroides (ALOMY); assay: Glasshouse assay for herbicidal activity, pre-/post-emergence (percentage phytotoxicity); conditions: Rate 250 g/ha, 100%=total damage, 0%=no damage; for pest or weed control at 250 g/ha: Alopecurus myosuroides
Description: (§1) Seeds of a variety of monocotyledonous and dicotyledonous test plants are sown in standard soil in pots. The plants are cultivated for one day (for pre-emergence) or for about 12 days (for post-emergence) under controlled conditions in a glasshouse (warm climate species at 24/18° C., cool climate species at 20/16° C., both at day/night; 16 hours light; 65% humidity). The test plants are then grown on, in a glasshouse (greenhouse) under controlled conditions (warm climate species at 24/18° C., cool climate species at 20/16° C., both at day/night; 16 hours light; 65% humidity) and are watered twice daily. 15 days after application of the test herbicide (15DAA) (for post-emergence), and 20 days after application of the test herbicide (20DAA) (for pre-emergence), the test plants are evaluated visually, and an assessed percentage phytotoxicity score is given for each herbicidal application on each plant species (with 100%=total damage to plant; 0%=no damage to plant). The plant species tested are as follows: Alopecurus myosuroides (ALOMY), Avena fatua (AVEFA), Lolium perenne (LOLPE), Echinochloa crus-galli (ECHCG).

Avena fatua (AVEFA) = assay: as above; conditions: Rate 250 g/ha, 100%=total damage, 0%=no damage; for pest or weed control at 250 g/ha: Avena fatua
Description: as §1

[2] = test system: Echinochloa crus-galli (ECHCG); assay: as above; conditions: Echinochloa crus-galli, Rate 250 g/ha, 100%=total damage, 0%=no damage
Description: as §1

Lolium perenne (LOLPE) = assay: as above; conditions: Rate 250 g/ha, 100%=total damage, 0%=no damage; for pest or weed control at 250 g/ha: Lolium perenne
Description: as §1

wheat = assay: Post-emergence herbicidal activity against cereal crops (wheat) +/- safener, crop selectivity; conditions: 100%=total damage to plant, 0%=no damage; for Post-emergence herbicidal activity against wheat (percentage phytotoxicity), +CQC: 250 g/ha, plus safener cloquintocet-mexyl (CQC) applied at 50 g/ha; for percent phytotoxicity (crop damage) to wheat at 250 g/ha: Triticum aestivum, 360 h, without safener, read-out: Post-emergence herbicidal activity against wheat (percentage phytotoxicity), Wheat - CQC
Description: as §1, with “plant).” for “plant). The plant species tested are as follows: Alopecurus myosuroides (ALOMY), Avena fatua (AVEFA), Lolium perenne (LOLPE), Echinochloa crus-galli (ECHCG).”

[3] = 360 h, post-emergence, visual assessment 15 DAA, read-out: Post-emergence herbicidal activity (percentage phytotoxicity), ALOMY POST
[4] = 480 h, pre-emergence, visual assessment 20 DAA, read-out: Pre-emergence herbicidal activity (percentage phytotoxicity), ALOMY PRE
[5] = post-emergence, 360 h, post-emergence, visual assessment 15 DAA, read-out: Post-emergence herbicidal activity (percentage phytotoxicity), AVEFA POST
[6] = pre-emergence, 480 h, pre-emergence, visual assessment 20 DAA, read-out: Pre-emergence herbicidal activity (percentage phytotoxicity), AVEFA PRE
[7] = post-emergence, 360 h, post-emergence, visual assessment 15 DAA, read-out: Post-emergence herbicidal activity (percentage phytotoxicity), ECHCG POST
[8] = pre-emergence, 480 h, pre-emergence, visual assessment 20 DAA, read-out: Pre-emergence herbicidal activity (percentage phytotoxicity), ECHCG PRE
[9] = post-emergence, 360 h, post-emergence, visual assessment 15 DAA, read-out: Post-emergence herbicidal activity (percentage phytotoxicity), LOLPE POST
[10] = pre-emergence, 480 h, pre-emergence, visual assessment 20 DAA, read-out: Pre-emergence herbicidal activity (percentage phytotoxicity), LOLPE PRE
[11] = post-emergence, visual assessment 15 DAA
[12] = pre-emergence, visual assessment 20 DAA

SMILES | pest or weed control at 250 g/ha [1, 3] | pest or weed control at 250 g/ha [1, 4] | pest or weed control at 250 g/ha (Avena fatua (AVEFA); [5]) | pest or weed control at 250 g/ha (Avena fatua (AVEFA); [6]) | pest or weed control at 250 g/ha [2, 7] | pest or weed control at 250 g/ha [2, 8] | pest or weed control at 250 g/ha (Lolium perenne (LOLPE); [9]) | pest or weed control at 250 g/ha (Lolium perenne (LOLPE); [10]) | Post-emergence herbicidal activity against wheat (percentage phytotoxicity), +CQC (wheat) | percent phytotoxicity (crop damage) to wheat at 250 g/ha (wheat) | Post-emergence herbicidal activity (percentage phytotoxicity), ALOMY POST [1, 11] | Pre-emergence herbicidal activity (percentage phytotoxicity), AVEFA PRE (Avena fatua (AVEFA); [12]) | Post-emergence herbicidal activity (percentage phytotoxicity), LOLPE POST (Lolium perenne (LOLPE); [11]) | Pre-emergence herbicidal activity (percentage phytotoxicity), LOLPE PRE (Lolium perenne (LOLPE); [12])
Cc1cc(C)c(C2C(=O)CC(CCNC(=O)NC(=O)c3ccccn3)C2=O)c(C)c1 (stereo not drawn) [Compound A1, N-[2-[2,4-dioxo-3-(2,4,6-trimethylphenyl)cyclopentyl]ethylcarbamoyl]pyridine-2-carboxamide] | 90% | 80% | 90% | 60% | 80% | 100% | 90% | 100% | 20% | 80% | – | – | – | –
Cc1cc(C)c(C2C(=O)CC(CCNC(=O)Nc3cc(C(F)(F)F)ccn3)C2=O)c(C)c1.Cl (stereo not drawn) [Compound A2, 1-[2-[2,4-dioxo-3-(2,4,6-trimethylphenyl)cyclopentyl]ethyl]-3-[4-(trifluoromethyl)-2-pyridyl]urea] | 80% | 70% | 100% | 80% | 100% | 90% | 100% | 80% | 80% | 80% | – | – | – | –
Cc1cc(C)c(C2C(=O)CC(CCNC(=O)Nc3ccccn3)C2=O)c(C)c1.Cl (stereo not drawn) [Compound A3] | 100% | 100% | 90% | 80% | 100% | 100% | 100% | 90% | 60% | 90% | – | – | – | –
Cc1cc(C)c(C2C(=O)CC(CCNC(=O)Nc3ccc(Br)cn3)C2=O)c(C)c1.Cl (stereo not drawn) [Compound A4] | 90% | 80% | 100% | 70% | 90% | 60% | 100% | 80% | 50% | 90% | – | – | – | –
Cc1cc(C)c(C2C(=O)CC(CCNC(=O)NC(C)(C)C)C2=O)c(C)c1 (stereo not drawn) [Compound A5] | 80% | 100% | 90% | 80% | 100% | 90% | 90% | 90% | 20% | 50% | – | – | – | –
Cc1cc(C)c(C2C(=O)CC(CCNC(N)=O)C2=O)c(C)c1 (stereo not drawn) [Compound A6] | 70% | 30% | 90% | 0% | 100% | 90% | 90% | 80% | 10% | 10% | – | – | – | –
Cc1cc(C)c(C2C(=O)CC(CCNC(=O)NCc3ccccc3)C2=O)c(C)c1 (stereo not drawn) [Compound A7] | 10% | 0% | 90% | 0% | 90% | 0% | 70% | 0% | 0% | 20% | – | – | – | –
Cc1cc(C)c(C2C(=O)CC(CCNC(=O)N(C)c3ccccc3)C2=O)c(C)c1 (stereo not drawn) [Compound A8] | 80% | 70% | 90% | 90% | 80% | 90% | 90% | 90% | 10% | 70% | – | – | – | –
Cc1cc(C)c(C2C(=O)CC(CCNC(=O)Nc3ccccc3)C2=O)c(C)c1 (stereo not drawn) [Compound A9, 1-[2-[2,4-dioxo-3-(2,4,6-trimethylphenyl)cyclopentyl]ethyl]-3-phenyl-urea] | 30% | 60% | 80% | 60% | 80% | 80% | 90% | 80% | 10% | 40% | – | – | – | –
Cc1cc(C)c(C2C(=O)CC(CCNC(=O)N(C)Cc3ccccc3)C2=O)c(C)c1 (stereo not drawn) [Compound A10] | 80% | 0% | 80% | 0% | 90% | 0% | 90% | 0% | 20% | 70% | – | – | – | –
Cc1cc(C)c(C2C(=O)CC(CCNC(=O)N(C)c3ccccn3)C2=O)c(C)c1 (stereo not drawn) [Compound A11] | 90% | 100% | 90% | 90% | 90% | 100% | 100% | 100% | 70% | 80% | – | – | – | –
Cc1cc(C)c(C2C(=O)CC(CCNC(=O)Nc3ccc(F)cn3)C2=O)c(C)c1 (stereo not drawn) [Compound A12] | 90% | 90% | 90% | 90% | 90% | 100% | 90% | 90% | 80% | 90% | – | – | – | –
Cc1cc(C)c(C2C(=O)CC(CCN(C)C(=O)Nc3ccccn3)C2=O)c(C)c1 (stereo not drawn) [Compound A17] | – | – | – | – | – | – | – | – | 10% | 50% | 70% | 0% | 40% | 30%
